Where two headings read alike, the source gives them in different places.
Tested on: AAT
Conditions: cynomolgus macaque
Description: MLP delivery polymer and Duplex Pair SEQ ID NO: 5/6 (AAT RNAi agent) were made and combined in a pharmaceutically acceptable buffer. On day 1, cynomolgus macaque (Macaca fascicularis) primates (male and female, 3 to 9 kg) were co-injected with MLP delivery polymer and Duplex Pair SEQ ID NO: 5/6 at different dose combinations. The dose combinations injected were: 2.0 mg/kg MLP delivery polymer+4.0 AAT RNAi agent (n=3), 3 mg/kg MLP delivery polymer+1.5 mg/kg AAT RNAi agent (n=2), 3.0 mg/kg MLP delivery polymer+3.0 mg/kg AAT RNAi agent (n=3), 3.0 mg/kg MLP delivery polymer+6.0 mg/kg AAT RNAi agent (n=2), 6.0 mg/kg MLP delivery polymer+12 mg/kg AAT RNAi trigger (n=3) ([…] conversion factor used to determine RNAi agent concentration) and 12 mg/kg MLP delivery polymer+6.0 mg/kg AAT RNAi agent (n=12). For each injection the MLP delivery polymer+AAT RNAi agent (2 ml/kg) was injected into the saphenous vein using a 22 to 25 gauge intravenous catheter. At the indicated time points, blood samples were drawn and analyzed for AAT and toxicity markers. Blood was collected from the femoral vein and primates were fasted overnight before all blood collections. Blood tests for blood urea nitrogen (BUN), alanine transaminase (ALT), aspartate aminotransferase (AST), and creatinine were performed on an automated chemistry analyzer at Meriter laboratories or BASi. AAT levels were determined on a Cobas Integra 400 (Roche Diagnostics) according to the manufacturer's recommendations.
Cynomolgus macaque primates were given five doses of AAT RNAi trigger+MLP delivery polymer at six week intervals. Each dose contained MLP delivery polymer and Duplex Pair SEQ ID NO: 5/6 (AAT RNAi agent) at a 1:2 weight to weight ratio of the MLP to RNAi agent. The first injection was on day 1. The dose combinations injected were: 2.0 mg/kg MLP delivery polymer+4.0 AAT RNAi agent (n=2) and 3 mg/kg MLP delivery polymer+6 mg/kg AAT RNAi agent (n=2). Blood was collected at intervals throughout the study and AAT levels were measured from the serum as described.

Substance: Duplex Pair SEQ ID NO: 5/6: double-stranded AAT RNAi agent: modified antisense strand SEQ ID NO: 5 annealed to Chol-TEG sense strand SEQ ID NO: 6 (antisense TGGAACUUGGUGAUGAUAUTT; sense UAUAUAUCAUCACCAAGUUCCAT; Chol-TEG on sense strand; chemical modifications; antisense strand of dsRNA; modified_base 7 /mod_base = “2′-3′ seco corresponding nucleotide”; modified_base 2,4,6,8,10,12,14,16,18 /mod_base = “2′-deoxy-2′-fluoro corresponding nucleoside”; modified_base 3,5,9,11,13,15,17,19 /mod_base = “2′-O-methyl corresponding nucleoside”; modified_base 21 /mod_base = “5′-phosphorothioate corresponding nucleotide”; sense strand of dsRNA; modified_base 2 /mod_base = “2′-hydroxy corresponding nucleoside”; modified_base 4,6,8,10,12,14,16,18,20,22 /mod_base = “2′-deoxy-2′-fluoro corresponding nucleoside”; …)
- Serum AAT levels measured six weeks after each treatment (2.0 mg/kg MLP delivery polymer + 4.0 AAT RNAi agent, five doses at six week intervals): rebounded less with each additional treatment
- Serum AAT reduced (2.0 mg/kg MLP delivery polymer + 4.0 AAT RNAi agent, six week intervals, following the fourth treatment): 85%
- Serum AAT reduced (2.0 mg/kg MLP delivery polymer + 4.0 AAT RNAi agent, following the first treatment): 80%
- knockdown of AAT (all dose combinations with MLP delivery polymer): Significant knockdown
- Percent AAT Knockdown in NHPs (co-injection MLP 2.0 mg/kg + SEQ ID 5/6 4.0 mg/kg on day 1, Day 2): 11%
- Percent AAT Knockdown in NHPs (co-injection MLP 2.0 mg/kg + SEQ ID 5/6 4.0 mg/kg on day 1, Day 3): 27%
- Percent AAT Knockdown in NHPs (co-injection MLP 2.0 mg/kg + SEQ ID 5/6 4.0 mg/kg on day 1, Day 8): 63%
- Percent AAT Knockdown in NHPs (co-injection MLP 2.0 mg/kg + SEQ ID 5/6 4.0 mg/kg on day 1, Day 11): 73%
- Percent AAT Knockdown in NHPs (co-injection MLP 2.0 mg/kg + SEQ ID 5/6 4.0 mg/kg on day 1, Day 15): 81%
- Percent AAT Knockdown in NHPs (co-injection MLP 2.0 mg/kg + SEQ ID 5/6 4.0 mg/kg on day 1, Day 22): 85%
- Percent AAT Knockdown in NHPs (co-injection MLP 2.0 mg/kg + SEQ ID 5/6 4.0 mg/kg on day 1, Day 29): 80%
- Percent AAT Knockdown in NHPs (co-injection MLP 2.0 mg/kg + SEQ ID 5/6 4.0 mg/kg on day 1, Pretest): 0%
- Percent AAT Knockdown in NHPs (co-injection MLP 3.0 mg/kg + SEQ ID 5/6 1.5 mg/kg on day 1, Day 2): 16%
- Percent AAT Knockdown in NHPs (co-injection MLP 3.0 mg/kg + SEQ ID 5/6 1.5 mg/kg on day 1, Day 3): 30%
- Percent AAT Knockdown in NHPs (co-injection MLP 3.0 mg/kg + SEQ ID 5/6 1.5 mg/kg on day 1, Day 8): 59%
- Percent AAT Knockdown in NHPs (co-injection MLP 3.0 mg/kg + SEQ ID 5/6 1.5 mg/kg on day 1, Day 11): 70%
- Percent AAT Knockdown in NHPs (co-injection MLP 3.0 mg/kg + SEQ ID 5/6 1.5 mg/kg on day 1, Day 15): 74%
- Percent AAT Knockdown in NHPs (co-injection MLP 3.0 mg/kg + SEQ ID 5/6 1.5 mg/kg on day 1, Day 22): 76%
- Percent AAT Knockdown in NHPs (co-injection MLP 3.0 mg/kg + SEQ ID 5/6 1.5 mg/kg on day 1, Day 29): 74%
- Percent AAT Knockdown in NHPs (co-injection MLP 3.0 mg/kg + SEQ ID 5/6 1.5 mg/kg on day 1, Day 36): 70%
- Percent AAT Knockdown in NHPs (co-injection MLP 3.0 mg/kg + SEQ ID 5/6 1.5 mg/kg on day 1, Day 43): 63%
- Percent AAT Knockdown in NHPs (co-injection MLP 3.0 mg/kg + SEQ ID 5/6 1.5 mg/kg on day 1, Day 50): 51%
- Percent AAT Knockdown in NHPs (co-injection MLP 3.0 mg/kg + SEQ ID 5/6 1.5 mg/kg on day 1, Pretest): 0%
- Percent AAT Knockdown in NHPs (co-injection MLP 3.0 mg/kg + SEQ ID 5/6 3.0 mg/kg on day 1, Day 2): 15%
- Percent AAT Knockdown in NHPs (co-injection MLP 3.0 mg/kg + SEQ ID 5/6 3.0 mg/kg on day 1, Day 3): 29%
- Percent AAT Knockdown in NHPs (co-injection MLP 3.0 mg/kg + SEQ ID 5/6 3.0 mg/kg on day 1, Day 8): 63%
- Percent AAT Knockdown in NHPs (co-injection MLP 3.0 mg/kg + SEQ ID 5/6 3.0 mg/kg on day 1, Day 11): 74%
- Percent AAT Knockdown in NHPs (co-injection MLP 3.0 mg/kg + SEQ ID 5/6 3.0 mg/kg on day 1, Day 15): 82%
- Percent AAT Knockdown in NHPs (co-injection MLP 3.0 mg/kg + SEQ ID 5/6 3.0 mg/kg on day 1, Day 22): 88%
- Percent AAT Knockdown in NHPs (co-injection MLP 3.0 mg/kg + SEQ ID 5/6 3.0 mg/kg on day 1, Day 29): 85%
- Percent AAT Knockdown in NHPs (co-injection MLP 3.0 mg/kg + SEQ ID 5/6 3.0 mg/kg on day 1, Pretest): 0%
- Percent AAT Knockdown in NHPs (co-injection MLP 3.0 mg/kg + SEQ ID 5/6 6.0 mg/kg on day 1, Day 2): 10%
- Percent AAT Knockdown in NHPs (co-injection MLP 3.0 mg/kg + SEQ ID 5/6 6.0 mg/kg on day 1, Day 3): 25%
- Percent AAT Knockdown in NHPs (co-injection MLP 3.0 mg/kg + SEQ ID 5/6 6.0 mg/kg on day 1, Day 8): 63%
- Percent AAT Knockdown in NHPs (co-injection MLP 3.0 mg/kg + SEQ ID 5/6 6.0 mg/kg on day 1, Day 11): 74%
- Percent AAT Knockdown in NHPs (co-injection MLP 3.0 mg/kg + SEQ ID 5/6 6.0 mg/kg on day 1, Day 15): 82%
- Percent AAT Knockdown in NHPs (co-injection MLP 3.0 mg/kg + SEQ ID 5/6 6.0 mg/kg on day 1, Pretest): 0%
- Percent AAT Knockdown in NHPs (co-injection MLP 6.0 mg/kg + SEQ ID 5/6 12.0 mg/kg on day 1, Day 2): 18%
- Percent AAT Knockdown in NHPs (co-injection MLP 6.0 mg/kg + SEQ ID 5/6 12.0 mg/kg on day 1, Day 3): 30%
- Percent AAT Knockdown in NHPs (co-injection MLP 6.0 mg/kg + SEQ ID 5/6 12.0 mg/kg on day 1, Day 8): 61%
- Percent AAT Knockdown in NHPs (co-injection MLP 6.0 mg/kg + SEQ ID 5/6 12.0 mg/kg on day 1, Pretest): 0%
- Percent AAT Knockdown in NHPs (co-injection MLP 12.0 mg/kg + SEQ ID 5/6 6.0 mg/kg on day 1, Day 2): 3%
- Percent AAT Knockdown in NHPs (co-injection MLP 12.0 mg/kg + SEQ ID 5/6 6.0 mg/kg on day 1, Day 3): 19%
- Percent AAT Knockdown in NHPs (co-injection MLP 12.0 mg/kg + SEQ ID 5/6 6.0 mg/kg on day 1, Day 8): 60%
- Percent AAT Knockdown in NHPs (co-injection MLP 12.0 mg/kg + SEQ ID 5/6 6.0 mg/kg on day 1, Day 11): 84%
- Percent AAT Knockdown in NHPs (co-injection MLP 12.0 mg/kg + SEQ ID 5/6 6.0 mg/kg on day 1, Day 15): 88%
- Percent AAT Knockdown in NHPs (co-injection MLP 12.0 mg/kg + SEQ ID 5/6 6.0 mg/kg on day 1, Day 26): 91%
- Percent AAT Knockdown in NHPs (co-injection MLP 12.0 mg/kg + SEQ ID 5/6 6.0 mg/kg on day 1, Day 33): 86%
- Percent AAT Knockdown in NHPs (co-injection MLP 12.0 mg/kg + SEQ ID 5/6 6.0 mg/kg on day 1, Day 47): 76%
- Percent AAT Knockdown in NHPs (co-injection MLP 12.0 mg/kg + SEQ ID 5/6 6.0 mg/kg on day 1, Pretest): 0%
- serum AAT levels reduced (repeat dosing at six week intervals, 3 mg/kg MLP delivery polymer + 6 mg/kg, from two to thirty weeks after the first treatment): 80-90%

From patent US20190071670A1, “Methods Of Treatment For Alpha-1 Antitrypsin Deficiency” (Arrowhead Pharmaceuticals, Inc., priority 2016, published 2019)
